Measured values from patent US8785630B2, “Insecticidal triazines and pyrimidines” (Vestaron Corporation, priority 2011, dated 2014).

These molecules were tested on beet armyworm (Spodoptera exigua) (assay: Insecticidal test for beet armyworm, treated diet surface). Conditions: 100 μg/cm^2 on diet surface, first instar larvae, 32 insects per treatment, observations 24, 48 and 96 hours.
Type: in vivo
Experimental: The compounds identified in Table 8 were prepared according to the previous methods and were tested against beet armyworm and corn earworm as follows:
Insecticidal Test for Beet Armyworm (Spodoptera exigua).
To prepare the test solution, the test compound was Formulated at 3499 ppm in solution as 5 mg compound/1.429 mL of 9 parts acetone: 1 part deionized H2O and vortexed to homogenize. 50 μL of the 3499 ppm (equivalent to 100 μg/cm^2 dose on diet surface area) test solution was pipetted upon the surface of 1 mL of solidified cool Southland Products Incorporated Beet Armyworm Diet (201 Stuart Island Road Lake Village, Ark. 71653) using an Eppendorf Repeater Plus with a 1 mL pipette tip. All pipetting of treatments was done in a Labconco Hood. Thirty minutes were allowed for the acetone to evaporate leaving a dose of 100 μg/cm^2 on the surface of the artificial diet. Two 24 hour old first instar Beet Armyworm (Spodoptera Exigua) larvae were placed in each well of the 128 well Bio-BA 128 Bioassay trays (CD International, Pitman, N.J., 08071, USA) using a #0 fine camel hair paint brush. Bioassay trays were sectioned into treatment groups of 8 with 16 replicates per treatment group (32 insects per treatment). Trays containing the treated diet and larvae were covered with a Bio-CV-16 cover (CD International, Pitman, N.J., 08071, USA) and then placed on a rack under florescent lights at 27° C., 20% relative humidity (RH) in the room, and 16 hr light: 8 hr dark for 96 hours. Observations were made 24, 48 and 96 hours after treatment and infestation. The number of insects dead were counted out of the 32 insects total per treatment and the results are given in a table as a percent mortality at a dose of 100 μg/cm^2. When finished, the tray was moved to the −5° C. freezer and left for 24 hr to insure mortality of the remaining S. exigua. After 24 hours, dispose of entire tray into waste bin.
Keys to the table: Mortality refers to activity against beet army worm (Spodoptera exigua) as defined above at the concentration of 100 μg/cm^2 (A=76-100% mortality, B=51-75% mortality, C=26-50% mortality and D=0-25% mortality).
For `Fc1cccc(Cl)c1-c1nc(NN=Cc2ccc(OC(F)(F)F)cc2)nc(Nc2ccccc2Cl)n1` [Example 41, 4-(2-chloro-6-fluorophenyl)-N-(2-chlorophenyl)-6-(2-(4-(trifluoromethoxy)benzylidene)hydrazinyl)-1,3,5-triazin-2-amine], the mortality at 100 µg/cm2 was 76 to 100%. With `COc1cccc(-c2nc(NN=Cc3ccc(OC(F)(F)F)cc3)nc(Nc3ccc(Cl)cc3)n2)c1` [Example 29, N-(4-chlorophenyl)-4-(3-methoxyphenyl)-6-(2-(4-(trifluoromethoxy)benzylidene)hydrazinyl)-1,3,5-triazin-2-amine] the mortality at 100 µg/cm2 was 0 to 25%. `Fc1ccccc1-c1nc(NN=Cc2ccc(OC(F)(F)F)cc2)nc(Nc2ccc(Cl)nc2)n1` [Example 42, N-(6-chloropyridin-3-yl)-4-(2-fluorophenyl)-6-(2-(4-(trifluoromethoxy)benzylidene)hydrazinyl)-1,3,5-triazin-2-amine] showed a mortality at 100 µg/cm2 of 76 to 100%. `Fc1cccc(Cl)c1-c1nc(NN=Cc2ccc(C(F)(F)F)cc2)nc(Nc2ccc(Cl)nc2)n1` [Example 51, 4-(2-chloro-6-fluorophenyl)-N-(6-chloropyridin-3-yl)-6-(2-(4-(trifluoromethyl)benzylidene)hydrazinyl)-1,3,5-triazin-2-amine] was tested, and the mortality at 100 µg/cm2 was 76 to 100%. With `CC(=NNc1nc(Nc2ccc(Cl)cc2)nc(-c2c(F)cccc2Cl)n1)c1ccc(OC(F)(F)F)cc1` [Example 21, 4-(2-chloro-6-fluorophenyl)-N-(4-chlorophenyl)-6-(2-(1-(4-(trifluoromethoxy)phenyl)ethylidene)hydrazinyl)-1,3,5-triazin-2-amine] the mortality at 100 µg/cm2 was 76 to 100%. `Fc1cccc(F)c1-c1nc(NN=Cc2ccc(OC(F)(F)F)cc2)nc(Nc2ccc(Cl)nc2)n1` [Example 9, N-(6-chloropyridin-3-yl)-4-(2,6-difluorophenyl)-6-(2-(4-(trifluoromethoxy)benzylidene)hydrazinyl)-1,3,5-triazin-2-amine] was tested, and the mortality at 100 µg/cm2 was 76 to 100%. `COc1ccc(-c2nc(NN=Cc3ccc(OC(F)(F)F)cc3)nc(Nc3ccc(Cl)cc3)n2)cc1` [Example 30, N-(4-chlorophenyl)-4-(4-methoxyphenyl)-6-(2-(4-(trifluoromethoxy)benzylidene)hydrazinyl)-1,3,5-triazin-2-amine] gave a mortality at 100 µg/cm2 of 0 to 25%. Molecule `CN(C)Nc1nc(NN=Cc2ccc(OC(F)(F)F)cc2)nc(-c2c(F)cccc2Cl)n1` [Example 25, 2-(2-chloro-6-fluorophenyl)-4-(2,2-dimethylhydrazinyl)-6-(2-(4-(trifluoromethoxy)benzylidene)hydrazinyl)-1,3,5-triazine] has a mortality at 100 µg/cm2 of 76 to 100%. `Cc1ccc(C=NNc2nc(Nc3ccc(Cl)nc3)nc(-c3c(F)cccc3Cl)n2)cc1` [Example 53, 4-(2-chloro-6-fluorophenyl)-N-(6-chloropyridin-3-yl)-6-(2-(4-methylbenzylidene)hydrazinyl)-1,3,5-triazin-2-amine] was tested, and the mortality at 100 µg/cm2 was 76 to 100%. `Fc1cccc(Cl)c1-c1nc(NN=Cc2ccc(OC(F)(F)C(F)Cl)cc2)nc(Nc2ccc(Cl)cc2)n1` (stereo not drawn) [Example 37, 4-(2-(4-(2-chloro-1,1,2-trifluoroethoxy)benzylidene)hydrazinyl)-6-(2-chloro-6-fluorophenyl)-N-(4-chlorophenyl)-1,3,5-triazin-2-amine] was tested, and the mortality at 100 µg/cm2 was 76 to 100%. For `Fc1cccc(Cl)c1-c1nc(NCc2ccc(Cl)cc2)nc(NN=Cc2ccc(OC(F)(F)F)cc2)n1` [Example 60, 4-(2-chloro-6-fluorophenyl)-N-(4-chlorobenzyl)-6-(2-(4-(trifluoromethoxy)benzylidene)hydrazinyl)-1,3,5-triazin-2-amine], the mortality at 100 µg/cm2 was 76 to 100%. `FC(F)(F)Oc1ccc(C=NNc2nc(Nc3ccc(Cl)cc3)nc(-c3c(Cl)cccc3Cl)n2)cc1` [Example 14, N-(4-chlorophenyl)-4-(2,6-dichlorophenyl)-6-(2-(4-(trifluoromethoxy)benzylidene)hydrazinyl)-1,3,5-triazin-2-amine] showed a mortality at 100 µg/cm2 of 51 to 75%. In the case of `Fc1ccc(Nc2nc(NN=Cc3ccc(OC(F)(F)F)cc3)nc(-c3c(F)cccc3F)n2)cc1C(F)(F)F` [Example 5, 4-(2,6-difluorophenyl)-N-(4-fluoro-3-(trifluoromethyl)phenyl)-6-(2-(4-(trifluoromethoxy)benzylidene)hydrazinyl)-1,3,5-triazin-2-amine], the mortality at 100 µg/cm2 is reported as 26 to 50%. Work on `Fc1cccc(-c2nc(NN=Cc3ccc(OC(F)(F)F)cc3)nc(Nc3ccc(Cl)cc3)n2)c1` [Example 31, N-(4-chlorophenyl)-4-(3-fluorophenyl)-6-(2-(4-(trifluoromethoxy)benzylidene)hydrazinyl)-1,3,5-triazin-2-amine] yielded a mortality at 100 µg/cm2 of 51 to 75%. `Fc1cccc(F)c1-c1nc(NN=Cc2ccc(OC(F)(F)F)cc2)nc(Nc2cccc(C(F)(F)F)c2)n1` [Example 7, 4-(2,6-difluorophenyl)-6-(2-(4-(trifluoromethoxy)benzylidene)hydrazinyl)-N-(3-(trifluoromethyl)phenyl)-1,3,5-triazin-2-amine] showed a mortality at 100 µg/cm2 of 0 to 25%. With `Fc1cccc(Cl)c1-c1cc(Nc2ccc(Cl)cc2)nc(NN=Cc2ccc(OC(F)(F)F)cc2)n1` [Example 52, 6-(2-chloro-6-fluorophenyl)-N-(4-chlorophenyl)-2-(2-(4-(trifluoromethoxy)benzylidene)hydrazinyl)pyrimidin-4-amine] the mortality at 100 µg/cm2 was 76 to 100%. `Cc1ccc(-c2nc(NN=Cc3ccc(OC(F)(F)F)cc3)nc(Nc3ccc(Cl)cc3)n2)cc1` [Example 33, N-(4-chlorophenyl)-4-(p-tolyl)-6-(2-(4-(trifluoromethoxy)benzylidene)hydrazinyl)-1,3,5-triazin-2-amine] showed a mortality at 100 µg/cm2 of 0 to 25%. With `FC(F)(F)Oc1ccc(C=NNc2nc(NCc3ccc(Cl)cc3)cc(-c3ccccc3)n2)cc1` [Example 61, N-(4-chlorobenzyl)-6-phenyl-2-(2-(4-(trifluoromethoxy)benzylidene)hydrazinyl)pyrimidin-4-amine] the mortality at 100 µg/cm2 was 76 to 100%. Work on `Fc1cccc(Cl)c1-c1nc(NN=Cc2ccc(OC(F)(F)F)cc2)nc(Nc2ccc(Cl)c(Cl)c2)n1` [Example 38, 4-(2-chloro-6-fluorophenyl)-N-(3,4-dichlorophenyl)-6-(2-(4-(trifluoromethoxy)benzylidene)hydrazinyl)-1,3,5-triazin-2-amine] yielded a mortality at 100 µg/cm2 of 76 to 100%. `FC(F)(F)Oc1ccc(C=NNc2nc(NCc3ccc(Cl)nc3)cc(-c3ccccc3)n2)cc1` [Example 56, N-((6-chloropyridin-3-yl)methyl)-6-phenyl-2-(2-(4-(trifluoromethoxy)benzylidene)hydrazinyl)pyrimidin-4-amine] gave a mortality at 100 µg/cm2 of 76 to 100%. In the case of `FC(F)(F)Oc1ccc(C=NNc2nc(Nc3ccc(Cl)cc3)nc(-c3ccc(Cl)c(Cl)c3)n2)cc1` [Example 32, N-(4-chlorophenyl)-4-(3,4-dichlorophenyl)-6-(2-(4-(trifluoromethoxy)benzylidene)hydrazinyl)-1,3,5-triazin-2-amine], the mortality at 100 µg/cm2 is reported as 0 to 25%. Molecule `Fc1cccc(F)c1-c1nc(NN=Cc2ccc(OC(F)(F)F)cc2)nc(Nc2ccc(OC(F)(F)F)cc2)n1` [Example 6, 4-(2,6-difluorophenyl)-6-(2-(4-(trifluoromethoxy)benzylidene)hydrazinyl)-N-(4-(trifluoromethoxy)phenyl)-1,3,5-triazin-2-amine] has a mortality at 100 µg/cm2 of 26 to 50%. Molecule `Fc1cccc(Cl)c1-c1nc(NCCN2CCOCC2)nc(NN=Cc2ccc(OC(F)(F)F)cc2)n1` [Example 24, 4-(2-chloro-6-fluorophenyl)-N-(2-morpholinoethyl)-6-(2-(4-(trifluoromethoxy)benzylidene)hydrazinyl)-1,3,5-triazin-2-amine] has a mortality at 100 µg/cm2 of 76 to 100%. `Fc1cccc(Cl)c1-c1nc(NN=Cc2ccc(OC(F)(F)F)cc2)nc(Nc2ccc(Cl)cn2)n1` [Example 45, 4-(2-chloro-6-fluorophenyl)-N-(5-chloropyridin-2-yl)-6-(2-(4-(trifluoromethoxy)benzylidene)hydrazinyl)-1,3,5-triazin-2-amine] showed a mortality at 100 µg/cm2 of 26 to 50%. `CNc1nc(NN=Cc2ccc(OC(F)(F)F)cc2)nc(-c2c(F)cccc2Cl)n1` [Example 43, 4-(2-chloro-6-fluorophenyl)-N-methyl-6-(2-(4-(trifluoromethoxy)benzylidene)hydrazinyl)-1,3,5-triazin-2-amine] gave a mortality at 100 µg/cm2 of 76 to 100%. Work on `FC(F)(F)Oc1ccc(C=NNc2nc(Nc3ccc(Cl)cc3)cc(-c3ccccc3)n2)cc1` [Example 57, N-(4-chlorophenyl)-6-phenyl-2-(2-(4-(trifluoromethoxy)benzylidene)hydrazinyl)pyrimidin-4-amine] yielded a mortality at 100 µg/cm2 of 76 to 100%. `Fc1cccc(Cl)c1-c1nc(NN=Cc2ccc(OC(F)(F)C(F)F)cc2)nc(Nc2ccc(Cl)cc2)n1` [Example 11, 4-(2-chloro-6-fluorophenyl)-N-(4-chlorophenyl)-6-(2-(4-(1,1,2,2-tetrafluoroethoxy)benzylidene)hydrazinyl)-1,3,5-triazin-2-amine] was tested, and the mortality at 100 µg/cm2 was 76 to 100%.
